Key:
TrkB = test: Biotin pull-down of TrkB after intrahippocampal injection of biotin-peptides; format: in vivo; details: 1 μg biotin-conjugated peptide bilaterally into mouse hippocampus, 24 h
ASD animal models = details: VRK3-deficient mice and D2-deficient mice with early-life stress; cited from earlier work

Row | Molecule | binding to TrkB in vivo (biotin pull-down) (TrkB) | social deficits and repetitive self-grooming behavior (ASD animal models)
1 | NADRSGSKEGFYMYIETSRPRLEGE [MDGA2-P1, peptide of MDGA2 MAM domain, aa 787–811, biotin-labeled] | not P1, bound to TrkB in vivo | 
2 | O=c1cc(-c2ccccc2)oc2c(O)c(O)ccc12 [7.8-dihydroxyflavone, reference compound] |  | rescued both social deficits and repetitive self-grooming behavior

Reference: paper PMC11960969, “Mdga2 deficiency leads to an aberrant activation of BDNF/TrkB signaling that underlies autism-relevant synaptic and behavioral changes in mice” (PLOS Biology, 2025)
